From US6645984B2, “Arylisoxazoline derivatives, processes for their preparation and their use as pesticides” (Aventis CropScience GmbH, priority 2001, dated 2003)

Tested on: Spodoptera litoralis
Assay: whole plant or invertebrate
Assay type: in vivo
Details: 96 h, read-out: larvae mortality
Procedure: Nutrient medium (freeze-dried cube) is dipped into an aqueous solution of the formulated preparation to be examined and then placed into a Petri dish. Ten L2 larvae of the Egyptian cotton leaf worm (Spodoptera litoralis) are then added. The Petri dish is then closed with a lid. The effect of the preparation on the larvae is determined after 4 days of storage at about 23° C. At a concentration of 500 ppm (based on the content of active compound), the preparations of Example Nos. 5, 9, 12, 28, 29, 30, 35, 39, 40, 41, 42, 43, 45, 46, 48, 52, 63, 87, 90, 91, 92, 94, 97, 98, 99, 100, 103, 107, 113, 117, 120, 125, 566, 567, 573, 574, 589, 600, 613, 614, 619, 626 effect a larvae mortality of 80-100%.

`CC1=NOC(c2ccc(C3COC(c4c(F)cccc4F)=N3)cc2)C1` (stereo not shown) [Example 566, 2-(2,6-Difluorophenyl)-4-(4-(3-methylisoxazolin-5-yl)phenyl)oxazoline] gave a mortality at 500 ppm of 80 to 100%.
